Read-outs that look alike come from different tables or passages of the source.
Target: T1, JAK3 (recombinant human kinase domain; h-jak3(810-1124)) (Homo sapiens, UniProt P52333)
T1 construct: h-jak3(810- 1124)-sf9-c; made in house; host or cells: Sf9 insect cells
Assay: Determination of IC50 of Janus Kinase (JAK) inhibition: JAK3, radioactive end-point assay with 33P-ATP
Assay type: biochemical

[1] = JAK3 kinase domain, ATP 1.5 uM, peptide 50 uM, 20 minutes, room temperature, 10% DMSO, read-out: Ic50 h-jak3(810-1124)-sf9-c:no additive

T1 sequence (P52333 810-1124): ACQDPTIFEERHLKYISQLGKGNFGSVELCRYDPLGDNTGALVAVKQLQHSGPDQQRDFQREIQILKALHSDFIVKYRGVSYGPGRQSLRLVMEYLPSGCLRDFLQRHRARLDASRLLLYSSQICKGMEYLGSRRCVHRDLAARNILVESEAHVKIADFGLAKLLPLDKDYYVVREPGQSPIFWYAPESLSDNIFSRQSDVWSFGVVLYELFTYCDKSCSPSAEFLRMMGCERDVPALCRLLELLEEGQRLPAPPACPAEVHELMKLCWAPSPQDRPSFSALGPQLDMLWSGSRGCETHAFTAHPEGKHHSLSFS

Row | SMILES | IC50 [1] [nM] | IC50 [nM]
1 | CC(NC(=O)c1c[nH]c2ncc(C3CC3)nc12)C1CCOCC1 (centres unmarked) [Example I-85, 2-Cyclopropyl-5H-pyrrolo[2,3-b]pyrazine-7-carboxylic acid [1-(tetrahydro-pyran-4-yl)-ethyl]-amide] | 72.5 | –
2 | C[C@H](NC(=O)c1c[nH]c2ncc(-c3ccc(C(=O)NCc4cccc(C#N)c4)s3)nc12)C(C)(C)C [Example I-227, 2-[5-(3-Cyano-benzylcarbamoyl)-thiophen-2-yl]-5H-pyrrolo[2,3-b]pyrazine-7-carboxylic acid ((S)-1,2,2-trimethyl-propyl)-amide] | 10.6 | –
3 | Cc1ccc(F)c(-n2cnc(-c3cnc4[nH]cc(C(=O)N[C@@H](C)C(C)(C)C)c4n3)c2)c1 [Example I-148, 2-[1-(2-Fluoro-5-methyl-phenyl)-1H-imidazol-4-yl]-5H-pyrrolo[2,3-b]pyrazine-7-carboxylic acid ((S)-1,2,2-trimethyl-propyl)-amide] | 3.25 | –
4 | CC(=O)N[C@@H]1CCc2ccc(Oc3cnc4[nH]cc(C(=O)NC(C)C#N)c4n3)cc21 (stereo partly drawn) [Example I-298, 2-((R)-3-Acetylamino-indan-5-yloxy)-5H-pyrrolo[2,3-b]pyrazine-7-carboxylic acid (cyano-methyl-methyl)-amide] | 387 | –
5 | CCNC(=O)c1c[nH]c2ncc(Oc3cc(OC)cc(OC)c3)nc12 [Example I-263, 2-(3,5-Dimethoxy-phenoxy)-5H-pyrrolo[2,3-b]pyrazine-7-carboxylic acid ethylamide] | 2350 | –
6 | C[C@@H](NC(=O)c1c[nH]c2ncc(C3CC3)nc12)C1(C#N)CCCCC1 [Example I-117, 2-Cyclopropyl-5H-pyrrolo[2,3-b]pyrazine-7-carboxylic acid [(R)-1-(1-cyano-cyclohexyl)-ethyl]-amide] | 26.8 | –
7 | CC(C)NC(=O)c1c[nH]c2ncc(Oc3cccc(C(F)(F)F)c3)nc12 [Example I-235, 2-(3-Trifluoromethyl-phenoxy)-5H-pyrrolo[2,3-b]pyrazine-7-carboxylic acid isopropylamide] | 784 | –
8 | Cc1cccc(Oc2cnc3[nH]cc(C(=O)NC(C)C)c3n2)n1 [Example I-278, 2-(6-Methyl-pyridin-2-yloxy)-5H-pyrrolo[2,3-b]pyrazine-7-carboxylic acid isopropylamide] | 491 | –
9 | C[C@H](NC(=O)c1c[nH]c2ncc(-c3ccc(C(=O)N4CC(C#N)C4)s3)nc12)C(C)(C)C [Example I-178, 2-[5-(3-Cyano-azetidine-1-carbonyl)-thiophen-2-yl]-5H-pyrrolo[2,3-b]pyrazine-7-carboxylic acid ((S)-1,2,2-trimethyl-propyl)-amide] | 0.32 | –
10 | CC(C)NC(=O)c1c[nH]c2ncc(Oc3ccc4c(c3)C=CC4)nc12 [Example I-302, 2-(1H-Inden-5-yloxy)-5H-pyrrolo[2,3-b]pyrazine-7-carboxylic acid isopropylamide] | – | 157
11 | C[C@H](NC(=O)c1c[nH]c2ncc(-c3ccc(C(=O)NCc4ccccn4)s3)nc12)C(C)(C)C [Example I-166, 2-{5-[(Pyridin-2-ylmethyl)-carbamoyl]-thiophen-2-yl}-5H-pyrrolo[2,3-b]pyrazine-7-carboxylic acid ((S)-1,2,2-trimethyl-propyl)-amide] | 0.11 | –
12 | CC(C)(CCO)NC(=O)c1c[nH]c2ncc(C3CC3)nc12 [Example I-42, 2-Cyclopropyl-5H-pyrrolo[2,3-b]pyrazine-7-carboxylic acid (3-hydroxy-1,1-dimethyl-propyl)-amide] | 131 | –
13 | COc1ccccc1CNC(=O)c1ccc(-c2cnc3[nH]cc(C(=O)N[C@@H](C)C(C)(C)C)c3n2)s1 [Example I-203, 2-[5-(2-Methoxy-benzylcarbamoyl)-thiophen-2-yl]-5H-pyrrolo[2,3-b]pyrazine-7-carboxylic acid ((S)-1,2,2-trimethyl-propyl)-amide] | 0.4 | –
14 | CC[C@@H](C)NC(=O)c1c[nH]c2ncc(Oc3ccc(F)cc3F)nc12 [Example I-126, 2-(2,4-Difluoro-phenoxy)-5H-pyrrolo[2,3-b]pyrazine-7-carboxylic acid ((R)-sec-butyl)-amide] | 190 | –
